Data set [1] has as its target T1, purified recombinant human PKD1 (Homo sapiens, UniProt Q15139).
T1 sequence (Q15139 1-912): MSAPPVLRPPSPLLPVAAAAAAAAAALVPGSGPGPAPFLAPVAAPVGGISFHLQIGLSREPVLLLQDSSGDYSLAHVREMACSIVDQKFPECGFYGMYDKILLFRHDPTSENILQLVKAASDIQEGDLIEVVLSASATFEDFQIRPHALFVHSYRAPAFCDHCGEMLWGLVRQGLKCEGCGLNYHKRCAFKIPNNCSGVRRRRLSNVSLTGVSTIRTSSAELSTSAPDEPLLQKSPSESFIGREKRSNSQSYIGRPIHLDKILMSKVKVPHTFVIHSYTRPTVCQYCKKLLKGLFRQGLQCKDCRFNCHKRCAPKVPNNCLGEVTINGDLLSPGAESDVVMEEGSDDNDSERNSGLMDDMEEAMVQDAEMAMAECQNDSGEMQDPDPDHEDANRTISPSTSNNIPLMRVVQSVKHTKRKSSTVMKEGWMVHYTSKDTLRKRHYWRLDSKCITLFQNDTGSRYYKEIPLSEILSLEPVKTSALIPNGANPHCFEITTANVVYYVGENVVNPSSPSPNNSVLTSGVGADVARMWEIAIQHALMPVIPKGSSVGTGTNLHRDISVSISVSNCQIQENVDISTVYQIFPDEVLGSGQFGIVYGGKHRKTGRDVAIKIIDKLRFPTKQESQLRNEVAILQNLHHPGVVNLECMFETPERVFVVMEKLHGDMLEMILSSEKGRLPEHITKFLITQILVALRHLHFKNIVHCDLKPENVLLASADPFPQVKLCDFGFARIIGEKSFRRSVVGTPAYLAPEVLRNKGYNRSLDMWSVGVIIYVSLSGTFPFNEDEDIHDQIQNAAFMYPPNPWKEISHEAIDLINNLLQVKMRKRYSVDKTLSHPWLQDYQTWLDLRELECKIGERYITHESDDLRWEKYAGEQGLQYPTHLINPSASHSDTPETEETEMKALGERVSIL
Nature of the data set: radiometric PKD kinase activity assay. The class given is biochemical. The method, then: The radiometric PKD kinase assay was carried out by co-incubating 0.5 μCi γ-32P-ATP (PerkinElmer, Boston, Mass.), 20 μM ATP, 50 ng purified recombinant human PKD (PKD1, PKD2, PKD3) proteins, and 2.5 μg Syntide-2 (Sigma) in 50 μl kinase buffer that contains 50 mM Tris-HCl, pH 7.5, 4 mM MgCl2, 10 mM β-mercaptoethanol. The reaction was carried out under sub-saturation conditions, such that the initial rate was within linear kinetic range. The reaction mixture was incubated at 30° C. for 10 min, followed by spotting 25 μl of the mix onto a Whatman P81 filter paper (Whatman Inc, Clifton, N.J.). The filter papers were then washed three times in 0.5% phosphoric acid, air-dried, and counted using a Beckman LS6500 multi-purpose scintillation counter (Beckman, Fullerton, Calif.).

Setting [2] is: read-out: IC50 radiometric PKD1.

The results in this text go back to patent publication US9840515B2, “Protein kinase D inhibitors” (University of Pittsburgh—Of the Commonwealth System of …, priority 2010, dated 2017).

Where a name gives a salt, the structure may show the parent alone. Read-outs that look alike come from different tables or passages of the source.

What is called melting point is the temperature, or range, at which the solid turns liquid. As for `O=C(OCc1ccccc1)N1CCCc2c1c(=O)oc1ccc(O)cc21` [kb-NB77-91, Phenylmethyl 9-hydroxy-5-oxo-1,2,3,4-tetrahydrochromeno[3,4-b]pyridine-4-carboxylate], the melting point lay in the range of 235 to 237 °C.

Take `O=C1NCCSc2c1sc1c(O)cccc21` [kb-NB184-40, 3,4-Dihydro-7-hydroxy-[1]benzothieno[2,3-f]-1,4-thiazepin-5(2H)-one]: the melting point is 269 to 272 °C (dec.). As usually defined, the IC50 is the concentration needed to halve the response being measured. The molecule `O=C1NCCSc2c1sc1ccc(N=C=S)cc21` [mcf292-05, 3,4-Dihydro-9-isothiocyanato-[1]benzothieno[2,3-f]-1,4-thiazepin-5(2H)-one] registered a melting point of 253 to 253.3 °C. The IC50 in data set [1] (setting [2]) was 2770 nM.

The molecule `CN1CCSc2c(sc3ccc(O)cc23)C1=O` [kb-NB165-17, 2,3-Dihydro-4-methyl-9-hydroxy-[1]benzothieno[2,3-f]-1,4-thiazepin-5-one] registered a melting point of 265 to 268 °C. Besides, the IC50 in data set [1] (setting [2]) was 450 ± 50 nM. As for `O=C1NCCSc2c1sc1ccc(OCc3ccccc3)cc21` [kb-NB123-66, 3,4-Dihydro-9-benzyloxy-[1]benzothieno[2,3-f]-1,4-thiazepin-5(2H)-one], the melting point is 247 to 249 °C. Consider `COc1nc(O)c2sc3c(c2n1)SCCNC3=O` [kmg-NB5-15A, 4-Hydroxy-2-methoxy-7H,8H,9H-1,4-thiazepino[7′,6′-5,4]thiopheno[3,2-d]pyrimidin-6-one], for which the melting point is 295 °C (dec.). In data set [1] (setting [2]), the 50% inhibitory concentration (IC50) was above 30000 nM. In turn, `COc1ccc2sc3c(c2c1)OCCCNC3=O` [kb-NB184-57, 2,3,4,5-Tetrahydro-10-methoxybenzo[b]thieno[2,3-f]-1,5-oxazocin-6-one] showed a melting point of 233 to 237 °C.

`COC(=O)c1sc2ccc(OC)cc2c1NCCCO` [kb-NB184-80, Methyl 3-(3-hydroxypropylamino)-5-methoxybenzo[b]thiophene-2-carboxylate] displayed a melting point of 116 to 120 °C. In addition, the “IC50 radiometric PKD1” value in data set [1] is reported as “not inhibitory”.

`O=C1NCCc2c1oc1ccc(O)cc21` [kb-NB123-23A, 6-Hydroxy-2,3,4-trihydrobenzo[b]pyridino[4,3-d]furan-1-one] had a melting point of 265 to 268 °C. As to `c1ccc(COc2ccc3sc4c(c3c2)SCCNC4)cc1` [kb-NB165-81, 2,3,4,5-Tetrahydro-9-benzyloxy-[1]benzothieno[2,3-f]-1,4-thiazepine], the melting point lay within 144 to 145 °C. For the same molecule, the IC50 in data set [1] (setting [2]) is 39600 nM. The molecule `COc1ccc2c(c1)c1c([s+]2[O-])C(=O)NCCS1` (stereo not shown) [kb-NB184-25, 3,4-Dihydro-9-methoxy-6-oxide-[1]benzothieno[2,3-f]-1,4-thiazepin-5(2H)-one] showed a melting point of 284 to 287 °C. The IC50 in data set [1] (setting [2]) stood at 1080 nM. Molecule `C=CCOc1ccc2oc3c(c2c1)CCCNC3=O` [kb-NB77-84, 7-Allyloxy-2,3,4,5-tetrahydro-[1]benzoxolo[2,3-c]azepin-1-one] had a melting point of 198 to 200 °C. Further, the IC50 in data set [1] (radiometric kinase activity assay, in vitro, read-out: IC50 PKD1) amounted to 123 nM.

With `COc1ccc2oc3c(c2c1)CCCN(C)C3=O` [kb-NB96-04, 7-Methoxy-2-methyl-3H,4H,5H-azepino[5,6-d]benzo[b]furan-1-one], the melting point was 150 to 151 °C.

`Nc1ccc2sc3c(c2c1)SCCNC3=O` [mcf292-03, 3,4-Dihydro-9-amino-[1]benzothieno[2,3-f]-1,4-thiazepin-5(2H)-one] returned a melting point of 198.6 to 199 °C. In addition, in data set [1] (setting [2]), the IC50 stood at 3170 nM.

For `CN1CCCc2c(oc3ccc(O)cc23)C1=O` [kb-NB142-25, 7-Hydroxy-2-methyl-3,4,5-trihydro-[1]benzoxolo[2,3-c]azepin-1-one], the melting point was in the range of 282 to 284 °C. Regarding `Oc1ccc2oc3c(c2c1)CCCN1CCN=C31` [kb-NB165-15, 5H,6H,7H-Benzo[b]2-imidazolino[1′,2′-7,1]azepino[5,6-d]furan-9-ol], the melting point is 230 to 232 °C (dec.). The “IC50 PKD1” value in data set [1] (radiometric kinase activity assay, in vitro) is on record as “No inhibition”.

For `Oc1ccc2sc3c(c2c1)SCCNC3` [kb-NB165-83, 2,3,4,5-Tetrahydro-9-hydroxy-[1]benzothieno[2,3-f]-1,4-thiazepine], the melting point is 182 to 184 °C (dec.). Besides, the IC50 in data set [1] (setting [2]) worked out at 16400 nM. Turning to `COc1nc(OC)c2sc3c(c2n1)SCCNC3=O` [kmg-NB5-13C, 2,4-Dimethoxy-7H,8H,9H-1,4-thiazepino[7′,6′-5,4]thiopheno[3,2-d]pyrimidin-6-one], the melting point is 288 °C (dec.). Molecule `COc1ccc2sc3c(c2c1)SCCN(C)C3=O` [kb-NB165-16, 2,3-Dihydro-4-Methyl-9-methoxy-[1]benzothieno[2,3-f]-1,4-thiazepin-5(2H)-one] displayed a melting point of 160 to 161 °C. The IC50 in data set [1] (setting [2]) was 4570 ± 780 nM. The molecule `O=C1NCCCOc2c1sc1ccc(OCc3ccccc3)cc21` [kb-NB184-36, 2,3,4,5-Tetrahydro-10-benzyloxybenzo[b]thieno[2,3-f]-1,5-oxazocin-6-one] returned a melting point of 195 to 200 °C.

Regarding `O=C(CCl)Nc1ccc2sc3c(c2c1)SCCNC3=O` [mcf292-09, 3,4-Dihydro-9-(2-chloroacetamido)-[1]benzothieno[2,3-f]-1,4-thiazepin-5(2H)-one], the melting point is 229 to 230 °C (dec.). Besides, the IC50 in data set [1] (setting [2]) came out at 1500 nM. Consider `CC(C)(C)[Si](C)(C)Oc1ccc2oc(=O)c3c(c2c1)CCCN3`, for which the melting point was in the range of 117 to 119 °C.

`COc1cccc2c3c(sc12)C(=O)NCCS3` [kb-NB184-44, 3,4-Dihydro-7-methoxy-[1]benzothieno[2,3-f]-1,4-thiazepin-5(2H)-one] gave a melting point of 220 to 224 °C. The same measure, in the same setting: for `C=CCOc1ccc2oc(=O)c3c(c2c1)CCCN3` [kb-NB77-83, 9-Allyloxy-1,2,3,4-tetrahydrochromeno[3,4-b]pyridin-5-one] the value was 90 to 91 °C; for `COc1ccc2sc3c(c2c1)[S+]([O-])CCNC3=O` (stereo not shown) [kb-NB184-45, 3,4-Dihydro-9-methoxy-1-oxide-[1]benzothieno[2,3-f]-1,4-thiazepin-5(2H)-one], 215 to 217 °C. Same read-out and setting: for `CC(=O)Oc1ccc2oc3c(c2c1)CCCN(C(C)=O)C3=O` [kb-NB123-45-1, 2-Acetyl-1-oxo-3H,4H,5H-azepino[5,6-d]benzo[b]furan-7-yl acetate] the value was 155 to 157 °C; for `O=C1NCCSc2c1sc1c(OCc3ccccc3)cccc21` [kb-NB184-38, 3,4-Dihydro-7-benzyloxy-[1]benzothieno[2,3-f]-1,4-thiazepin-5(2H)-one], 213 to 215 °C; for `O=C1NCCSc2c1[s+]([O-])c1ccc(O)cc21` (stereo not shown) [kb-NB184-22, 3,4-Dihydro-9-hydroxy-6-oxide-[1]benzothieno[2,3-f]-1,4-thiazepin-5(2H)-one], 160 to 163 °C (dec.). On the same count and under the same terms, in the case of `O=C1NCCSc2c1sc1cnc(O)nc21` (as salt: hydrochloride) [kmg-NB4-69A, 2-Hydroxy-7H,8H,9H-1,4-thiazepino[7′,6′-5,4]thiopheno[3,2-d]pyrimidin-6-one] it was 335.9 °C (dec.).

The molecule `CC(=O)Oc1ccc2oc3c(c2c1)CCCNC3=O` [kb-NB123-36, 7-Acetoxy-2,3,4,5-tetrahydro-[1]benzoxolo[2,3-c]azepin-1-one] came in with a melting point of 196 to 197 °C.

For the molecule `O=c1oc2ccc(O)c(Cl)c2c2c1NCCC2` [kb-NB96-47-1, 10-Chloro-9-hydroxy-1,2,3,4-tetrahydrochromeno[3,4-b]pyridin-5-one], the melting point was 211 to 213 °C.

`CC(C)(C)[Si](C)(C)Oc1ccc2oc3c(c2c1)CCCNC3=O`: the melting point fell in the range of 209 to 212 °C.

With `COc1ccc2oc3c(c2c1)CCN(C)C3=O` [kb-NB123-37, 6-Methoxy-2-methyl-2,3,4-trihydrobenzo[b]pyridino[4,3-d]furan-1-one], the melting point was in the range of 168 to 172 °C. The molecule `COc1ccc2oc3c(c2c1)CCCNC3=O` [kb-NB77-56, 7-Methoxy-2,3,4,5-tetrahydro-[1]benzoxolo[2,3-c]azepin-1-one] returned a melting point of 261 to 263 °C.
